Data as given in patent US20070243576A1, “Method to confirm immunosuppression in human patients by measuring lymphocyte activation” (priority 2001, published 2007).

Tests used:
[1] = tested on: T-Lymphocytes (CD4 subset) in whole blood; type: cell-based, human
[2] = tested on: T lymphocytes (CD4 subset) in whole blood; test: Whole blood ATP response after stimulation with PHA, 2-24 hr (Example 2); type: cell-based, human; conditions: PHA 1%
Description: Aliquots of the blood were diluted 1:10 in RPMI 1640. Replicates received either no addition or the mitogen PHA at 1% final concentration. Samples were incubated at 37° C. […] The cells and beads were placed next to a permanent magnet positioned such that the magnetic field was in a direction perpendicular to gravity. […] Assay Reagent (luciferin/luciferase) was added to the samples ATP production was determined as described above. […] The response is clearly evident at 4 hours of incubation, peaks at 8 hours, and remains high at 24 hrs post stimulation.

[3] = tested on: T-Lymphocytes (CD4 subset) in whole blood; test: T-lymphocyte ATP response to PHA in normal and HIV infected donors (Example 4); conditions: PHA 10 ug/mL, overnight incubation, anti-CD4 beads
[4] = tested on: T-lymphocytes in whole blood; type: cell-based, human

Row | Substance | increase in ATP over background [1] | time within which activation of the T lymphocyte subset is detected [1] [min] | increase in ATP over background ([2]; all time points (2, 4, 6, 8, 24 hr)) | time of peak ATP response ([2]; time course 2-24 hr) [h] | ATP response to PHA, HIV+ population versus normal donors [3] | increase in ATP over background [4]
1 | Phytohemagglutinin [PHA] | statistically significant increase | ≤ 30 | increase in ATP over background | 8 | lower than the normal donor population | 
2 | Tetanus Toxoid | significant | ≤ 300 |  |  |  | increase in ATP over background
